{
  "source": "patent US6110918A",
  "about": "“Mesylate trihydrate salt of 5-(2-(4-(1,2-benzisothiazol-3-yl)-1-piperazinyl)ethyl)-6-chloro-1,3-dihy dro-2(1H)-indol-2-one (=ziprasidone), its preparation and its use as dopamine D2 antagonist” (Pfizer Inc, priority 1999, dated 2000)",
  "key": {"[1]": {"experiment": "Hygroscopicity / hygroscopic stability", "format": "physicochemical"}, "[2]": {"details": "for SOLUBILITY IN WATER: Aqueous solubility of ziprasidone mesylate polymorphs, ambient temperature (22-25° C.), equilibration 12-13 days", "experimental": "(§1) The relative thermodynamic stability of the three ziprasidone mesylate hydrated crystal forms was determined in a series of bridging experiments where mixtures of the crystal forms were allowed to equilibrate. For the bridging experiments, 200 mg samples were allowed to equilibrate in water (4 mL) at ambient temperature (22-25° C.). Two samples each of 90/10 (w/w) and 10/90 (w/w) mixtures of the two different identified polymorphs of ziprasidone mesylate (prism vs. dihydrate (lath), prism vs. dihydrate (needle), dihydrate (needle) vs. dihydrate (lath)) were evaluated. After equilibration (12-13 days), the solids were evaluated for polymorph changes and the supernatants were assayed by HPLC to determine solubility."}, "[3]": {"details": "as stated by U.S. Pat. No. 5,312,925; cited from earlier work"}, "[4]": {"experiment": "Relative thermodynamic stability of the crystal forms in water (bridging experiments)", "format": "physicochemical", "details": "for thermodynamic stability in an aqueous medium (words): ambient conditions/temperature, among the four ziprasidone mesylate forms, methanesulfonate trihydrate"}, "physchem": {"experiment": "physchem", "details": "water", "experimental": "as §1"}},
  "note": "Structures can show the parent of a compound that is named as a salt. Where two headings read alike, the source gives them in different places.",
  "data": [
    {"smiles": "O=C1Cc2cc(CCN3CCN(c4nsc5ccccc45)CC3)c(Cl)cc2N1", "note": "[5-[2-[4-(1,2-benzisothiazol-3-yl)-1-piperazinyl]ethyl]-6-chloro-1,3-dihydro-2H-indol-2-one methanesulfonate anhydrous]", "values": [
      {"measurement": "hygroscopicity when exposed to air", "setting": "[1]; exposed to air (humidity)", "value": "hygroscopic when exposed to air (humidity)"},
      {"measurement": "SOLUBILITY IN WATER", "setting": "[2]; listed as anhydrous", "value": 1.27, "unit": "mg/mL"}
    ]},
    {"smiles": "O=C1Cc2cc(CCN3CCN(c4nsc5ccccc45)CC3)c(Cl)cc2N1", "note": "[5-[2-[4-(1-benzisothiazol-3-yl)-1-piperazinyl]ethyl]-6-chloro-1,3-dihydro-2H-indol-2-one methanesulfonate dihydrate (lath crystals)]", "values": [
      {"measurement": "SOLUBILITY IN WATER", "setting": "[2]; listed as dihydrate (lath)", "value": 1.11, "unit": "mg/mL"}
    ]},
    {"smiles": "O=C1Cc2cc(CCN3CCN(c4nsc5ccccc45)CC3)c(Cl)cc2N1", "note": "[5-[2-[4-(1-benzisothiazol-3-yl)-1-piperazinyl]ethyl]-6-chloro-1,3-dihydro-2H-indol-2-one methanesulfonate dihydrate (needle crystals)]", "values": [
      {"measurement": "SOLUBILITY IN WATER", "setting": "[2]; listed as dihydrate (needle)", "value": 1.10, "unit": "mg/mL"}
    ]},
    {"smiles": "O=C1Cc2cc(CCN3CCN(c4nsc5ccccc45)CC3)c(Cl)cc2N1", "note": "[ziprasidone hydrochloride monohydrate, reference compound]", "values": [
      {"measurement": "aqueous solubility", "setting": "[2]; background statement", "value": "low aqueous solubility"},
      {"measurement": "solubility in water", "setting": "[2]; in water at ambient temperature, comparator salt", "value": 80, "unit": "µg/mL"},
      {"measurement": "hygroscopic stability", "setting": "[3]", "value": "substantially hygroscopically stable"}
    ]},
    {"smiles": "CS(=O)(=O)O.O.O.O.O=C1Cc2cc(CCN3CCN(c4nsc5ccccc45)CC3)c(Cl)cc2N1", "note": "[ziprasidone mesylate trihydrate, 5-[2-[4-(1,2-benzisothiazol-3-yl)-1-piperazinyl]ethyl]-6-chloro-1,3-dihydro-2H-indol-2-one methanesulfonate trihydrate]", "values": [
      {"measurement": "thermodynamic stability in an aqueous medium (words)", "setting": "[4]; listed as mesylate trihydrate", "value": "most thermodynamically stable"},
      {"measurement": "thermodynamic stability in an aqueous medium (words)", "setting": "[4]", "value": "most thermodynamically stable form of the four ziprasidone mesylate forms"},
      {"measurement": "thermodynamic stability relative to the dihydrate forms", "setting": "[4]; bridging experiments, 200 mg in water (4 mL), 22-25° C., 12-13 days", "value": "thermodynamically favored over the dihydrate forms"},
      {"measurement": "hygroscopic stability", "setting": "[1]", "value": "possesses hygroscopic stability"},
      {"measurement": "aqueous solubility relative to ziprasidone hydrochloride monohydrate", "setting": "[2]; compared with hydrochloride monohydrate", "value": "significantly greater aqueous solubility than the hydrochloride monohydrate"},
      {"measurement": "solubility", "setting": "physchem", "value": 730, "unit": "µg/mL"}
    ]}
  ]
}
